Here are results for four molecules from ChEMBL document CHEMBL1142428, “Noreupenifeldin, a tropolone from an unidentified ascomycete” (J Nat Prod, 2008).

One assay deals with Haemonchus contortus. The experiment in a line: Anthelmintic activity against Haemonchus contortus assessed as reduction in L3 larval motility. In kind it is functional.
A further assay has as its target Stromelysin-1 (Homo sapiens, UniProt P08254). The experiment in a line: Inhibition of stromelysin mediated beta-casein cleavage.

≈ marks a conversion by molar mass, not a printed value. Calls of active or inactive are those of the source. The calls are words filed in the database; no cut-off is given here.

Stromelysin-1, sequence (P08254 whole entry): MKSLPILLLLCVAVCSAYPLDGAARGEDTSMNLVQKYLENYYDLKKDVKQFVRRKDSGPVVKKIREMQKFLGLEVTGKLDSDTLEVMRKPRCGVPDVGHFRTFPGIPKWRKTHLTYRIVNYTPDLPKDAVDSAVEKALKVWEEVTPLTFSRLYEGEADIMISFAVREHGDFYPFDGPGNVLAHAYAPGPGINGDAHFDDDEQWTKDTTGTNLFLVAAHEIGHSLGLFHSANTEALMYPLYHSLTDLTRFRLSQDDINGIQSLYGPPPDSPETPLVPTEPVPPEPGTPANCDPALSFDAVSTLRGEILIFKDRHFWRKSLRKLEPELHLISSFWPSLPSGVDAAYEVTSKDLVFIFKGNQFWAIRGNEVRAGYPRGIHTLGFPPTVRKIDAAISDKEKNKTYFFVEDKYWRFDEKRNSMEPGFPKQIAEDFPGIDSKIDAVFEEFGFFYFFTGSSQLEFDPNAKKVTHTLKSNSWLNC

Regarding IVERMECTIN, in the assay on Haemonchus contortus, the EC90 worked out at 0.18 µg/mL.
Take `Cc1cc(=O)c(O)cc2c1C[C@@H]1CC(C)(C)/C=C/C[C@@]3(C)Oc4cc(O)cc(C)c4C[C@@H]3C[C@@H](O)[C@]1(C)O2`: the outcome with Haemonchus contortus was inactive.
At Stromelysin-1, `Cc1cc(=O)c(O)cc2c1C[C@H]1CC(C)(C)/C=C/C[C@@]3(C)Oc4cc(O)c(=O)cc(C)c4C[C@@H]3C[C@H](O)[C@]1(C)O2` [PYCNIDIONE] displayed an IC50 of 31 µM. Moreover, the EC90 in the assay with Haemonchus contortus stood at 83 µg/mL (≈ 151 µM).
For the molecule `Cc1cc(=O)c(O)cc2c1C[C@@H]1CC(C)(C)/C=C/C[C@@]3(C)Oc4cc(O)c(=O)cc(C)c4C[C@@H]3C[C@@H](O)[C@]1(C)O2` [EUPENIFELDIN], the EC90 with Haemonchus contortus turned out to be 50 µg/mL (≈ 91.1 µM).

Broadly, the EC90 is the concentration needed for an effect of 90%. As a reminder, the IC50 is the midpoint of a concentration-inhibition curve. A high value points to weaker potency in that assay.
